Test results reported in patent US8778995B2, “Use of hydroxyoleic acid and related compounds in the manufacture of drugs” (Universitat de les Illies Balears, priority 2001, dated 2014).

What was measured:
purified G-proteins = assay: Activity of purified G-proteins in the absence of membrane; format: biochemical
Text: (§1) This is because these molecules have an influence on the interaction of G-proteins with membranes and therefore on their cellular localization, as is shown in the photographs from confocal microscopy (FIG. 2). The effect of hydroxyoleic acid and its analogs on the localization and activity of G-proteins is not due to a direct interaction on them.
FIG. 6: Hydroxyoleic acid and its analogs had no effect on pure G-proteins (in the absence of membrane).

[1] = Temperature of transition from lamellar to hexagonal structure (HII) of DEPE membranes, X-ray diffraction/scattering; settings: for TH, lamellar-hexagonal transition of DEPE: phospholipid:analog 20:1 mol:mol, Table 2, control 61
Procedure: The control value (in the absence of 2-hydroxyoleic) is 63° C. […] This important modification of the cell membrane has important consequences for molecular and cellular function. All the analogs of 2-hydroxyoleic tested that have therapeutic activity also induce effects on the membrane structure (Table 2).
Using this technique, we established that the structure of the membrane is altered by 2-hydroxyoleic acid and its analogs. The lowering of the temperature of transition from lamellar to hexagonal structure indicates an important effect on rearrangement of the lipid molecules in the membrane. This regulation of rearrangement forms the basis of the effect exerted by 2-hydroxyoleic acid and its analogs.

Gαi2 protein = assay: Cellular localization of fluorescein-labeled Gαi2 protein, confocal microscopy; format: cell-based; settings: primary astrocytes of rat brain, FIG. 2
Text: as §1
(§2) In this way, inhibition of cell proliferation is achieved, as was confirmed by the appreciable and significant increases in the levels of the protein p21 and the decreases in the cell cycle proteins cdk2 and cyclins B and D3 (FIGS. 3A and B). Moreover, it has been observed that in cells in culture, 2-hydroxyoleic acid and its analogs induce significant increases in protein kinase C (increase of between 40% and 120%).
In control cells, the labeling indicates the presence of this protein throughout the cell, especially in the nucleus (arrow).

[2] = Body weight of rats in chronic treatment; format: in vivo; settings: seventh day, Sprague-Dowley rat aged 2-3 months
Text: Rats treated with these molecules lost body weight during chronic treatments (from 5 to 17 days). In these experiments, rats treated with 2-hydroxyoleic acid or its analogs, in particular aminoleic acid, had free access to food and water, in the same way as the control group of treated rats (FIG. 11). In these conditions there was a progressive decrease in the rats' body weight starting from the first day of treatment, up to 17 grams on the seventh day of treatment (5% of the normal body weight of a Sprague-Dowley rat aged 2-3 months). […] Similar experiments carried out on adult mice, for periods of up to 28 days with 2-hydroxyoleic acid, show reductions in body weight from 15% to 25%, relative to control mice (treated with vehicle).
The animals (Sprague-Dowley rats) had free access to food and water at any time.

[3] = test system: cerebral tumor metastases, formed from a lung adenocarcinoma; assay: Brain metastases of lung adenocarcinoma in a patient; format: in vivo, human; settings: previous chemotherapy and radiotherapy without effect
Text: The antitumor efficacy of 2-hydroxyoleic acid and its […] is shown in FIG. 8, in which we can see the disappearance of some cerebral tumor metastases, formed from a lung adenocarcinoma, after treatment with 2-hydroxyoleic acid.
Regulation of the Activity of G-Proteins Controls Blood Pressure.
The image on the left (8a) corresponds to the tumors before treatment and those on the right (8b, 8c and 8d) correspond to the tumors after treatment with 2-hydroxyoleic on various dates.

[4] = test system: systolic arterial pressure; assay: Blood pressure in humans; format: in vivo; settings: 30 mg/kg, FIG. 9b
Text: The days prior to treatment are shown with negative values. *P<0.05, **P<0.01.

[5] = test system: human lung cancer cells A549; assay: Cell cycle proteins (cdk2, cyclin B, cyclin D3, p21) in A549 cells; format: cell-based
Text: as §2
(§3) Similar effects were produced by all the analogs tested that comply with the general structural formula given earlier. […] This antiproliferative effect was also observed using other techniques and other cell types: in rat primary astrocytes, these fatty acids have an antiproliferative effect, which I studied by incorporating tritiated thymidine. Moreover, hydroxyoleic acid and its analogs are able to induce apoptosis or programmed cell death in human cancer cells. […] Using flow cytometry experiments, it was established that in the presence of 2-hydroxyoleic acid the number of live human leukemia cells (Jurkat) was only 10% of those that remained alive with Etoposide, a known antitumor agent.
Protein p21 inhibits the cell cycle, so it is an antiproliferative protein. […] The decrease in levels of this enzyme, or evidence of its degradation, indicate the start of apoptosis or programmed cell death. […]

[6] = test system: human lung cancer cells A549; assay: Proliferation (cell density) of A549 tumor cells in culture; format: cell-based; settings: FIG. 4A
Text: (§4) The presence of 2-hydroxyoleic acid and/or its analogs in the cells induces activation of the signal pathway associated with p53, which induces the start of apoptosis or stopping of the cell cycle in various types of tumor cells. With the aim of carrying out the first objective of the present invention, in vitro and in vivo models were used.

[7] = test system: human leukemia cells (Jurkat); assay: Degradation of poly-ADP ribose polymerase (PARP) in Jurkat cells; format: cell-based; settings: Jurkat cells, 10, 100 and 1000 μM, FIG. 3C
Text: as §3
Protein p21 inhibits the cell cycle, so it is an antiproliferative protein. […] The decrease in levels of this enzyme, or evidence of its degradation, indicate the start of apoptosis or programmed cell death. In these experiments Etoposide was used as the positive control, as this molecule is known to be an inducer of apoptosis and an antitumor agent.

[8] = test system: human leukemia cells (Jurkat); assay: Flow cytometry, number of live Jurkat cells; format: cell-based
Text: as §3

[9] = test system: Jurkat cells of human leukemia; assay: Proliferation (cell density) of Jurkat tumor cells in culture; format: cell-based; settings: FIG. 4B
Text: as §4

heart rate = assay: Heart rate during hypotensive treatment; format: in vivo; settings: FIGS. 9a, 9b and 10
Procedure: The hypotensive effect produced by 2-hydroxyoleic acid and its analogs is that it induces a reduction in blood pressure of an acute form (which is evident from 2 hours of treatment) and chronic (which is maintained for days and weeks while the treatment is maintained). Aminoleic acid, for example, reduces blood pressure by 15 mmHg in chronic treatments lasting a week. These fatty acids regulate communication between receptor, G-protein and effector. The result is a modulation of the signals of cyclic AMP, phospholipase C and nitric oxide, which gives rise to a reduction in blood pressure. This effect is also connected with regulation of the membrane structure. […] An additional advantage of these compounds is that they control other cardiovascular risk factors: the serum lipid/lipoprotein profile and body weight (see below).

G-proteins = assay: Binding of [35S]GTPγS to membranes of NIH 3T3 cells transfected with the rat adrenoceptor α2A/D (activity of G-proteins); format: biochemical
Text: Hydroxyoleic acid and related compounds are capable of modulating the activity of G-proteins, measured by the binding of [^35S] GTPγS (FIG. 5).
The analogs of 2-hydroxyoleic produce an effect similar to that of 2-hydroxyoleic acid.

[10] = test system: systolic arterial pressure; assay: Blood pressure in Sprague-Dowley rats; format: in vivo; settings: for systolic arterial pressure after acute treatment, in words: Sprague-Dowley rats, FIG. 10
Procedure: These reductions were of an acute form (at 2 hours of treatment, 19±6 mmHg, P<0.01, n=6) and of a chronic form (1 week, 26±7 mmHg, P<0.001, n=6).
Lower doses of this molecule (1-10 mg/kg) produced similar effects, but less marked. *P<0.01.

For `CCCCCCCC/C=C\CCCCCCC(O)C(=O)O` (stereo not drawn) [2-hydroxyoleic acid, cis-2-hydroxy-9-octadecenoic acid], the “influence on the activity of purified G-proteins” value (from here on “influence on the activity”) (purified G-proteins; FIG. 6, listed as Hydroxyoleic acid) was “no effect”, the “influence on the activity” value (purified G-proteins; FIG. 6, listed as hydroxyoleic) was “did not have an influence” and the “TH, temperature of transition from lamellar to hexagonal structure” value (“TH, temperature of transition” below) ([1]; DEPE:2OHOA 10:1 mol:mol) was 41 °C. For the same compound, the “TH, temperature of transition” value ([1]; DEPE:2OHOA 20:1 mol:mol) was 48 °C, the “TH, temperature of transition” value ([1]; DEPE:2OHOA 40:1 mol:mol) was 54 °C and the “cellular localization of Gαi2 protein” value (Gαi2 protein) was “in membrane and cytosol, but not in the nucleus”. For the same compound, the “decrease in body weight as share of normal body weight” value [2] was 5%, the “effect on brain tumors (metastases) in a patient” value (shortened to “effect on brain tumors”) ([3]; FIG. 8) was “complete disappearance of the cancer” and the “effect on brain tumors” value ([3]; FIG. 8, listed as 2-hydroxyoleic) was “one of the tumors disappeared more quickly and the other one more slowly”. The “blood pressure in humans, in words” value [4] was “significant, large decreases”, the “cell cycle proteins cdk2, cyclin B and cyclin D3” value ([5]; FIG. 3A) was “decrease” and the p21 protein ([5]; incubation for 24 and 48 hours, FIG. 3B) was “large increases”. For the same compound, the “effect on proliferation of A549 cells” value [6] was “induce stoppage of division and the death of tumor cells”, the “poly-ADP ribose polymerase (PARP) levels” value [7] was “degradation” and the “number of live Jurkat cells relative to those that remained alive with Etoposide” value [8] was 10%. For the same compound, the “effect on proliferation of Jurkat cells” value [9] was “induce stoppage of division and the death of tumor cells”, the “effect on heart rate” value (heart rate) was “without altering the heart rate” and the “function of the G-proteins ([35S]GTPγS binding), in words” value (G-proteins; FIG. 5) was “decrease in function of the G-proteins even greater than the anthracycline daunomycin”. The “systolic arterial pressure after acute treatment, in words” value (“systolic arterial pressure” below) [10] was “significant decreases”, the “blood pressure at lower doses, in words” value ([10]; acute and chronic treatments from 1 mg/kg to 10 mg/kg) was “significant reductions” and the “reduction of blood pressure, chronic” value ([10]; rats, 1 week, 3 daily injections of 30 mg/kg) was 26±7 mmHg. For the same compound, the “reduction of blood pressure, acute” value ([10]; rats, at 2 hours of treatment, 30 mg/kg) was 19±6 mmHg.

In the case of `CCCCCCCC/C=C\CCCCCCC(N)C(=O)O` (stereo not drawn) [Aminoleic acid, 2-amino-oleic (2-amino-cis-9-octadecenoic)acid], the “TH, lamellar-hexagonal transition of DEPE” value (shortened to “TH … of DEPE”) [1] is reported as 49 °C, the “decrease in body weight as share of normal body weight” value [2] is reported as 5% and the “effect on proliferation of A549 cells” value [6] is reported as “induce stoppage of division and the death of tumor cells”. The “effect on proliferation of Jurkat cells” value [9] was “induce stoppage of division and the death of tumor cells” and the “reduction of blood pressure, chronic treatments lasting a week” value ([10]; species not printed at the place) was 15 mmHg.

With `CCCCCCCC/C=C\CCCCCCC(C)C(=O)O` (stereo not drawn) [Methyloleic acid, 2-methyl-oleic (2-methyl-cis-9-octadecenoic)acid] the “TH … of DEPE” value [1] was 50 °C, the “effect on proliferation of A549 cells” value [6] was “induce stoppage of division and the death of tumor cells” and the “effect on proliferation of Jurkat cells” value [9] was “induce stoppage of division and the death of tumor cells”. The “systolic arterial pressure” value [10] was “significant decreases”.

For `CCCCCCCC/C=C\CCCCCCCCCCCCCC(=O)O` [Nervonic acid, nervonic (cis-15-tetracosenoic)acid], the “TH … of DEPE” value [1] was 55 °C, the “effect on proliferation of A549 cells” value [6] was “induce stoppage of division and the death of tumor cells” and the “effect on proliferation of Jurkat cells” value [9] was “induce stoppage of division and the death of tumor cells”. The “systolic arterial pressure” value [10] was “significant decreases”.

For `CCCCCCCC/C=C\CCCCCCCC(=O)O` [Oleic acid, oleic (cis-9-octadecenoic)acid], the “TH … of DEPE” value [1] was 45 °C, the “effect on brain tumors” value ([3]; FIG. 8) was “complete disappearance of the cancer” and the “effect on proliferation of A549 cells” value [6] was “induce stoppage of division and the death of tumor cells”. The “effect on proliferation of Jurkat cells” value [9] was “induce stoppage of division and the death of tumor cells” and the “systolic arterial pressure” value [10] was “significant decreases”.

With `CCCCCC/C=C\CCCCCCCCCC(=O)O` [cis-Vaccenic acid, cis-vaccenic (cis-11-octadecenoic)acid] the “TH … of DEPE” value [1] was 53 °C and the “systolic arterial pressure” value [10] was “significant decreases”.

With `COc1cccc2c1C(=O)c1c(O)c3c(c(O)c1C2=O)C[C@@](O)(C(C)=O)C[C@@H]3O[C@H]1C[C@H](N)[C@H](O)[C@H](C)O1` [daunomycin, reference compound] the “influence on the activity” value (purified G-proteins; FIG. 6) was “did not have an influence”, the “influence on the activity” value (purified G-proteins; FIG. 6, listed as Daunomycin) was “behavior similar to the control” and the “inhibition in the activity of G-proteins” value (G-proteins; 200 μM, membranes of NIH 3T3 cells) was 46%.

For `CCCCCC/C=C\CCCCCCCC(=O)O` [palmitoleic acid, palmitoleic (cis-9-hexadecenoic)acid], the “effect on proliferation of A549 cells” value [6] was “induce stoppage of division and the death of tumor cells”, the “effect on proliferation of Jurkat cells” value [9] was “induce stoppage of division and the death of tumor cells” and the “systolic arterial pressure” value [10] was “significant decreases”.
